Earlier results on one molecule are cited in patent publication US20240181106A1, “WATER-SOLUBLE PHOTOSENSITIVE COMPOSITION OF PHOTODYNAMIC ENVIRONMENTAL DISINFECTION AND METHOD OF ENVIRONMENTAL DISINFECTION BY USING THE SAME” (NATIONAL CHENG KUNG UNIVERSITY, priority 2022, published 2024).

On to `CN(C)c1ccc2nc3ccc(=[N+](C)C)cc-3sc2c1` [methylene blue], for which, where the note is “60 kg-weight adult, every 4 hours”, the safe single dose is recorded as 120 mg. Also, under “human”, the “daily dose not to be exceeded” value is no more than 7 mg/kg daily and the “maximum safe dose administered to a human” value is listed as 2 mg/kg/single dose.
